# Data: BindingDB's records for doi:10.1021/jm301674z (Takeda Pharmaceutical, 2013)
# Biological target: Baculoviral IAP repeat-containing protein 2 (Homo sapiens) (UniProt Q13490)
# Experiment: Inhibition of human recombinant His-tagged cIAP1 protein BIR3 domain (250 to 350 amino acid residues) using biotinylated-Smac as substrate after overnight incubation by HTRF assay
# Sequence of Baculoviral IAP repeat-containing protein 2 (Homo sapiens) (Q13490 whole entry, looked up, the tested form may be a part): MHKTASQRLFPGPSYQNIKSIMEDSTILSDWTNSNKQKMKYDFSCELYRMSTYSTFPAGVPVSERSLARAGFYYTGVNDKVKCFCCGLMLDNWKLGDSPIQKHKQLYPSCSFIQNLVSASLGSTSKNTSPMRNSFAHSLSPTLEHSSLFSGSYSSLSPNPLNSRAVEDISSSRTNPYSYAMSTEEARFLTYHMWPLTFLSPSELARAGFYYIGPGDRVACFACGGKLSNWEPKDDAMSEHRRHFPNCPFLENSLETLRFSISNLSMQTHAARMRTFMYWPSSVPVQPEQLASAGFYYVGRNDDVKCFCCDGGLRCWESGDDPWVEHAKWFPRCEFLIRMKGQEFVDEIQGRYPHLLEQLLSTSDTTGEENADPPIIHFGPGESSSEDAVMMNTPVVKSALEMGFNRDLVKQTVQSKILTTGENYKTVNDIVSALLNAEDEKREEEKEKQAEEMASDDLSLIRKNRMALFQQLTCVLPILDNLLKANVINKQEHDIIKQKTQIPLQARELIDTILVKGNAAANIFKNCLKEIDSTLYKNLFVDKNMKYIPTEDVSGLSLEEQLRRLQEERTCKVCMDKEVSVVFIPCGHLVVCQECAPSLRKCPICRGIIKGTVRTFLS
row,IC50,Compound
1,7.6 nM,CN[C@@H](C)C(=O)N[C@H](C(=O)N1C[C@H]2CCCN2C[C@H]1C(=O)N[C@@H]1CCC(=O)c2ccccc21)C1CCCCC1
2,3.2 nM,CN[C@@H](C)C(=O)N[C@H](C(=O)N1C[C@H]2CCCN2C[C@H]1C(=O)N[C@@H]1CCOc2ccccc21)C1CCC(F)(F)CC1
3,1300 nM,CN[C@@H](C)C(=O)N[C@H](C(=O)N1C[C@H]2CCCN2C[C@H]1C(=O)N[C@H]1CCCc2ccccc21)C1CCCCC1
4,14 nM,CN[C@@H](C)C(=O)N[C@H](C(=O)N1C[C@H]2CCCN2C[C@H]1C(=O)N[C@H](C)c1ccccc1)C1CCCCC1
5,4.9 nM,CN[C@@H](C)C(=O)N[C@H](C(=O)N1C[C@H]2C[C@@H](O)CN2C[C@H]1C(=O)N[C@@H]1CCOc2ccccc21)C1CCC(F)(F)CC1
6,2.7 nM,CN[C@@H](C)C(=O)N[C@H](C(=O)N1C[C@H]2CCCN2C[C@H]1C(=O)N[C@@H]1CCCc2ccccc21)C1CCCCC1
7,1.7 nM,CN[C@@H](C)C(=O)N[C@H](C(=O)N1C[C@H]2CC(F)(F)CN2C[C@H]1C(=O)N[C@@H]1CCOc2ccccc21)C1CCC(F)(F)CC1
8,2.6 nM,CN[C@@H](C)C(=O)N[C@H](C(=O)N1C[C@H]2CCCN2C[C@H]1C(=O)N[C@@H]1CCOc2ccccc21)c1ccccc1
9,1.3 nM,CCO[C@@H]1C[C@@H]2CN(C(=O)[C@@H](NC(=O)[C@H](C)NC)C3CCC(F)(F)CC3)[C@H](C(=O)N[C@@H]3CCOc4ccccc43)CN2C1
10,3.4 nM,CN[C@@H](C)C(=O)N[C@H](C(=O)N1C[C@H]2CCCN2C[C@H]1C(=O)N[C@@H]1CCOc2ccccc21)C1CCOCC1
11,2.5 nM,CN[C@@H](C)C(=O)N[C@H](C(=O)N1C[C@@H]2CCCN2C[C@H]1C(=O)N[C@@H]1CCOc2ccccc21)C1CCC(F)(F)CC1
12,4 nM,CN[C@@H](C)C(=O)N[C@H](C(=O)N1C[C@H]2CCCN2C[C@H]1C(=O)N[C@@H]1CCC(F)(F)c2ccccc21)C1CCCCC1
